Assay results: patent US20140249198A1, “MELATONIN AND ITS USE IN PREVENTING POSTOPERATIVE COMPLICATIONS” (NUTRI-FIT GMBH & CO., KG, priority 2004, published 2014)

Key:
neonates = settings: treatment started within 3 hours after the end of surgery; cited from earlier work
[1] = system: rat middle cerebral artery occlusion model; settings: pretreatment with melatonin; cited from earlier work
[2] = system: female Sprague Dawley rats; experiment: Partial liver resection with ischemia/reperfusion in rats, preoperative melatonin by gavage; assay type: in vivo, rat
Protocol: Ischemia and subsequent reperfusion of organs and tissues induced by clamping of blood vessels to prevent excessive bleeding, are unavoidable during surgical procedures. Such a standard ischemia/reperfusion situation can be simulated by a partial hepatectomy in a clinically relevant rat surgical model.
In this animal model, female Sprague Dawley rats (200-220 g) undergo a median laparotomy followed by clamping of the right lateral liver lobe for 20 min resulting in a hypoxia in about 30% of the entire organ. After reperfusion of the ischemic tissue, the remaining 70% of the liver, the non-ischemic middle and left lateral liver lobes are surgically removed and the surgical incision is closed. During a follow up period of maximal 7 days the effects of ischemia/reperfusion are observed with respect to liver damage and survival.
In this rat model the operative trauma of performing a laparotomy introduces a first hypoxia in the liver. The subsequent partial clamping of the blood supply to the liver and the following partial resection of a large part of liver tissue results in additional ischemia. During the subsequent reperfusion the actual free radical-induced damage to the liver tissue occurs. This actual damage to many cells of the liver tissue in regions of the remaining parts of the organ is now determined by the release of enzymes such as liver transaminases, alkaline phosphatase after various time points following partial liver resection.
After reperfusion of the ischemic tissue, the remaining 70% of the liver, the non-ischemic middle and the left lateral liver lobes were surgically removed and the surgical incision was closed.
In this rat model the operative trauma of performing a laparotomy introduced a first hypoxia in the liver. […] During the subsequent reperfusion the actual free radical-induced damage to the liver tissue occurred. This actual damage to many cells of the liver tissue in regions of the remaining parts of the organ was now determined by the release of enzymes such as liver transaminases (AST, ALT) and alkaline phosphatase after various time points following partial liver resection.
Melatonin was administered in various concentrations (0, 10, 20, 50 mg/kg body weight) by gavage of a control (5% ethanol in water; 0 mg/kg body weight melatonin) or a melatonin-containing aqueous solution (5% ethanol) into the stomach of the 10 rats of each of the four groups 2 hours before the surgery.

neutrophils = settings: in vitro; apoptosis delayed following hepatectomy; cited from earlier work
mice = settings: short term administration after surgery-induced hemorrhagic shock, mice subjected to septic challenge; cited from earlier work
[3] = 10, 20, 50 mg/kg body weight by gavage 2 hours before surgery, 3 and 8 h after partial liver resection, vs control, FIG. 1

SMILES: COc1ccc2[nH]cc(CCNC(C)=O)c2c1 [Melatonin, N-acetyl-5-methoxytryptamin]
- clinical parameters of inflammation (neonates): progressive reduction of clinical parameters of inflammation
- volume of cerebral infarction [1]: reduce the volume of cerebral infarction
- survival after 7 days ([2]; 10 mg/kg body weight preoperatively, vs control, FIG. 3): significant increase in survival
- alkaline phosphatase (ALP) activity (indicates regeneration of the liver) ([2]; 50 mg/kg body weight preoperatively, 3, 8, 48 h and 1 week after partial liver resection, vs control, FIG. 2): increased ALP activity after 48 h reaching statistical significance after 1 week
- level of alanine transferase (ALT) [2, 3]: amelioration of the massive increase
- level of aspartate transferase (AST) [2, 3]: amelioration of the massive increase
- hypoxia of liver tissue ([2]; preoperative application, partial liver resection in rats): reduces the increase in hypoxia of liver tissue
- extent of necrosis following ischemia/reperfusion of the liver ([2]; preoperative application, rats): reduces the extent of necrosis
- apoptosis activity in neutrophils (neutrophils): enhances apoptosis activity in neutrophils
- survival (mice): significantly improved survival
